Measured values as given in ChEMBL document CHEMBL1139570, “Estrogen receptor ligands: design and synthesis of new 2-arylindene-1-ones” (Bioorg Med Chem Lett, 2005).

Tests used:
[1] = target: Estrogen receptor beta (Homo sapiens, UniProt Q92731)
Description: Inhibition of human estrogen receptor beta

[2] = target: T1, Estrogen receptor (Homo sapiens, UniProt P03372)
T1 sequence (P03372 whole entry): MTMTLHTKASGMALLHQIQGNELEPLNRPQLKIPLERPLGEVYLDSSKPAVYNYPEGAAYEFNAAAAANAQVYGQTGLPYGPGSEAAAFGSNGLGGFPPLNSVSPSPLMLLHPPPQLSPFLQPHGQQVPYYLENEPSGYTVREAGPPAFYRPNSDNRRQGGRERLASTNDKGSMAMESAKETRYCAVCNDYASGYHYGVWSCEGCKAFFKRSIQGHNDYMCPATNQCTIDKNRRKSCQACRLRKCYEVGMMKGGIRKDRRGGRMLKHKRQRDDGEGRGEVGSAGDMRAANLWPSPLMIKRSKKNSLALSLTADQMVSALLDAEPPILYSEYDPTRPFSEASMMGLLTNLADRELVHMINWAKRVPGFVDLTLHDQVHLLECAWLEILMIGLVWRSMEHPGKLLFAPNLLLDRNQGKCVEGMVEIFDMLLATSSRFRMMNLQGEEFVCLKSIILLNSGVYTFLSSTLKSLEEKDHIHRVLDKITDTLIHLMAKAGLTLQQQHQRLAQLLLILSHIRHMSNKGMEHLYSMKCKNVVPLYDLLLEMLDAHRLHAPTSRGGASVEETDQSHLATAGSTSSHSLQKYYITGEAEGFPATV
Description: Inhibition of human estrogen receptor alpha

Sequence of Estrogen receptor beta (Q92731 whole entry): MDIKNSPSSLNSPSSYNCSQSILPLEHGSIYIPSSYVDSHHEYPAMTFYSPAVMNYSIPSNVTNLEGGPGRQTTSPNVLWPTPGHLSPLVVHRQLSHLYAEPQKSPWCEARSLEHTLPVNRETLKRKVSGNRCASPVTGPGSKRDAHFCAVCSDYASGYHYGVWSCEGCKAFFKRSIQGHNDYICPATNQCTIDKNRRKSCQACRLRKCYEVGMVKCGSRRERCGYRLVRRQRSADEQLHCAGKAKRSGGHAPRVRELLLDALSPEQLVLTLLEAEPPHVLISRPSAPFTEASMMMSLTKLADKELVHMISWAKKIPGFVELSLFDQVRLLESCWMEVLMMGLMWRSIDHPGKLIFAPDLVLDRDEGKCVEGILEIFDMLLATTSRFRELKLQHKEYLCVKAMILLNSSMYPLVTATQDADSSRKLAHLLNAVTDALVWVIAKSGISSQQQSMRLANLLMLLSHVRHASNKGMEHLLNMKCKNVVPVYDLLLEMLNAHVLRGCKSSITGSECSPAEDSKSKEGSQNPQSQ

Row | Structure (SMILES) | IC50 [1] [µM] | IC50 [2] [µM]
1 | CC/N=C1/C(c2ccc(O)cc2)=C(O)c2cc(O)cc(O)c21 | 2.7 | > 5
2 | O=C1C(c2ccc(O)cc2)=C(c2ccccc2)c2cc(O)ccc21 | 0.01 | 0.01
3 | CCSC1=C(c2ccc(O)cc2)C(=O)c2cc(O)cc(O)c21 | 0.15 | 0.58
4 | COc1ccc2c(c1)C(Br)=C(c1ccc(O)cc1)C2=O | 0.199 | 1.8
5 | O=C1C(c2ccc(O)cc2)=C(c2ccccc2)c2ccc(O)cc21 | 0.009 | 0.009
6 | O=C1C(c2ccc(O)cc2)=C(O)c2cc(O)cc(O)c21 | – | > 5
7 | NC1=C(c2ccc(O)cc2)C(=O)c2cc(O)ccc21 | 1.15 | > 5
8 | CSC1=C(c2ccc(O)cc2)C(=O)c2ccc(O)cc21 | 0.0013 | 0.0031
9 | O=C1C(c2ccc(O)cc2)=C(Br)c2cc(O)ccc21 | 0.0017 | 0.0052
10 | CC1=C(c2ccc(O)cc2)C(=O)c2c(O)cc(O)cc21 | 0.0024 | –
11 | CCSC1=C(c2ccc(O)cc2)C(=O)c2ccc(O)cc21 | – | 0.48
12 | O=C1C(c2ccc(O)cc2)=C(O)c2ccc(O)cc21 | – | > 5
